Read-outs that look alike come from different tables or passages of the source.
Assays:
JAK1 = JAK1 (Homo sapiens (Human), UniProt P23458); experiment: Jak Biochemical HTRF Assay (JAK1); details: recombinant GST-tagged catalytic domain, [ATP] 31.8 μM, unit not given (compound concentrations tested given in nM)
Description: Jak Biochemical HTRF Assay Protocol
Subsequent reagent additions employed an Agilent Bravo.

JAK2 = JAK2 (Homo sapiens (Human), UniProt O60674); experiment: Jak Biochemical HTRF Assay (JAK2)
[1] = JAK2 IC50, recombinant GST-tagged catalytic domain, [ATP] 8.5 μM, unit not given (compound concentrations tested given in nM)
[2] = read-out: JAK2 IC50, recombinant GST-tagged catalytic domain, [ATP] 8.5 μM, unit not given (compound concentrations tested given in nM)

Sequence of JAK2 (O60674 849-1124): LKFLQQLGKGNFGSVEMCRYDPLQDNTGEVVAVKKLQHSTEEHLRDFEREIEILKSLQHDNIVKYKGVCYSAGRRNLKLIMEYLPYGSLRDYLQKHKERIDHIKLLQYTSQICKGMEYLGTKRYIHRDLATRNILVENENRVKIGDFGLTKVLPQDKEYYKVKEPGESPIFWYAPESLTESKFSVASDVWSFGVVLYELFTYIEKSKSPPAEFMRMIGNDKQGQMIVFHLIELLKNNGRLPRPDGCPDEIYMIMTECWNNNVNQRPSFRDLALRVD
Sequence of JAK1 (P23458 875-1153): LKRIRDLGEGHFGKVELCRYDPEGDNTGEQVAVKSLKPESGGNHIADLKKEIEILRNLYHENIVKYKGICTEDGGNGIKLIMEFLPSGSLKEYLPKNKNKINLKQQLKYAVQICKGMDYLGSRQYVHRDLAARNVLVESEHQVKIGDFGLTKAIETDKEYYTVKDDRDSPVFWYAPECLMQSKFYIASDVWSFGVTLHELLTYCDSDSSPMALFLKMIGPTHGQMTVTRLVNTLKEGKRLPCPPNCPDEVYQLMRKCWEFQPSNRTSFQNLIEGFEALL

SMILES | IC50 (JAK1) [nM] | IC50 (JAK2; [1]) [nM] | IC50 (JAK2; [2]) [nM]
N#Cc1ccc(Nc2nn([C@H]3COCC[C@@H]3C#N)c3cc[nH]c(=O)c23)cc1F [Example 1-32, (3R,4S)-3-{3-[(4-cyano-3-fluorophenyl)amino]-4-oxo-4,5-dihydro-1H-pyrazolo[4,3-c]pyridin-1-yl}tetrahydro-2H-pyran-4-carbonitrile] | 0.24 | – | 2.11
COC(C)(c1ccc(Nc2nn([C@H]3COCC[C@@H]3C#N)c3cc[nH]c(=O)c23)cc1)C(F)(F)F (single isomer, unassigned) [Example 1-33, (3R,4S)-3-(4-oxo-3-((4-((S or R)-1,1,1-trifluoro-2-methoxypropan-2-yl)phenyl)amino)-4,5-dihydro-1H-pyrazolo[4,3-c]pyridin-1-yl)tetrahydro-2H-pyran-4-carbonitrile] | 0.04 | 0.09 | –
CC(C)S(=O)(=O)c1ccc(Nc2nn([C@H]3COCC[C@@H]3C#N)c3cc[nH]c(=O)c23)cc1 [Example 1-11, (3R,4S)-3-(3-((4-(isopropylsulfonyl)phenyl)amino)-4-oxo-4,5-dihydro-1H-pyrazolo[4,3-c]pyridin-1-yl)tetrahydro-2H-pyran-4-carbonitrile] | 0.09 | – | 0.34
N#C[C@H]1CCOC[C@@H]1n1nc(Nc2ccccc2)c2c(=O)[nH]ccc21 [Example 1-3, (3R,4S)-3-(4-oxo-3-(phenylamino)-4,5-dihydro-1H-pyrazolo[4,3-c]pyridin-1-yl)tetrahydro-2H-pyran-4-carbonitrile] | 0.11 | – | 1.39
N#Cc1ccc(Nc2nn([C@H]3COCC[C@@H]3C#N)c3cc[nH]c(=O)c23)cc1 [Example 1-31, (3R,4S)-3-{3-[(4-cyanophenyl)amino]-4-oxo-4,5-dihydro-1H-pyrazolo[4,3-c]pyridin-1-yl}tetrahydro-2H-pyran-4-carbonitrile] | 0.12 | – | 0.96
CC(C)(C)S(=O)(=O)c1ccc(Nc2nn(C3COCCC[C@H]3C#N)c3cc[nH]c(=O)c23)cc1 (single isomer, unassigned) [Example 1-24, (3R,4R or 3S,4S)-3-(3-{[4-(tert-butylsulfonyl)phenyl]amino}-4-oxo-4,5-dihydro-1H-pyrazolo[4,3-c]pyridin-1-yl)oxepane-4-carbonitrile] | 12.4 | 14.7 | –
CC(C)(C)NS(=O)(=O)c1ccc(Nc2nn([C@H]3COCC[C@@H]3C#N)c3cc[nH]c(=O)c23)cc1 [Example 1-10, N-(tert-butyl)-4-((1-((3R,4S)-4-cyanotetrahydro-2H-pyran-3-yl)-4-oxo-4,5-dihydro-1H-pyrazolo[4,3-c]pyridin-3-yl)amino)benzenesulfonamide] | 0.08 | – | 0.21
CC(C)(C)S(=O)(=O)c1ccc(Nc2nn([C@@H]3COCCC[C@H]3C#N)c3cc[nH]c(=O)c23)cc1 (single isomer, unassigned) [Example 1-23, (3S,4R or 3R,4S)-3-(3-{[4-(tert-butylsulfonyl)phenyl]amino}-4-oxo-4,5-dihydro-1H-pyrazolo[4,3-c]pyridin-1-yl)oxepane-4-carbonitrile] | 0.25 | 0.69 | –
CC1c2cc(Nc3nn([C@H]4COCC[C@@H]4C#N)c4cc[nH]c(=O)c34)ccc2S(=O)(=O)N1C (single isomer, unassigned) [Example 1-34, (3R,4S)-3-(3-(((R or S)-2,3-dimethyl-1,1-dioxido-2,3-dihydrobenzo[d]isothiazol-5-yl)amino)-4-oxo-4,5-dihydro-1H-pyrazolo[4,3-c]pyridin-1-yl)tetrahydro-2H-pyran-4-carbonitrile] | 0.03 | 1.18 | –
CC(C)CN1Cc2ccc(Nc3nn([C@H]4COCC[C@@H]4C#N)c4cc[nH]c(=O)c34)cc2C1 [Example 1-14, (3R,4S)-3-(3-{[2-(2-methylpropyl)-2,3-dihydro-1H-isoindol-5-yl]amino}-4-oxo-4,5-dihydro-1H-pyrazolo[4,3-c]pyridin-1-yl)tetrahydro-2H-pyran-4-carbonitrile] | 0.22 | – | 0.41

More lines, now with the values ahead:

IC50 (JAK1) [nM] | IC50 (JAK2; [1]) [nM] | IC50 (JAK2; [2]) [nM] | SMILES
0.21 | 0.4 | – | CC(C)CNC(c1ccc(Nc2nn([C@H]3COCC[C@@H]3C#N)c3cc[nH]c(=O)c23)cc1)C(F)(F)F (single isomer, unassigned) [Example 1-90, (3R,4S)-3-{4-oxo-3-[(4-{(1S or 1R)-2,2,2-trifluoro-1-[(2-methylpropyl)amino]ethyl}phenyl)amino]-4,5-dihydro-1H-pyrazolo[4,3-c]pyridin-1-yl}tetrahydro-2H-pyran-4-carbonitrile]
0.05 | 0.27 | – | CC(O)(c1ccc(Nc2nn([C@H]3COCC[C@@H]3C#N)c3cc[nH]c(=O)c23)cc1)C(F)(F)F (single isomer, unassigned) [Example 2-4, (3R,4S)-3-[4-oxo-3-({4-[(1R or 1S)-2,2,2-trifluoro-1-hydroxy-1-methylethyl]phenyl}amino)-4,5-dihydro-1H-pyrazolo[4,3-c]pyridin-1-yl]tetrahydro-2H-pyran-4-carbonitrile]
0.13 | 0.19 | – | N#C[C@H]1CCOC[C@@H]1n1nc(Nc2ccc(C(NC3CCC3)C(F)(F)F)cc2)c2c(=O)[nH]ccc21 (single isomer, unassigned) [Example 1-92, (3R,4S)-3-[3-({4-[(1S or 1R)-1-(cyclobutylamino)-2,2,2-trifluoroethyl]phenyl}amino)-4-oxo-4,5-dihydro-1H-pyrazolo[4,3-c]pyridin-1-yl]tetrahydro-2H-pyran-4-carbonitrile]
0.13 | 0.15 | – | N#C[C@H]1CCOC[C@@H]1n1nc(Nc2ccc(C(NC3CCCC3)C(F)(F)F)cc2)c2c(=O)[nH]ccc21 (single isomer, unassigned) [Example 1-84, (3R,4S)-3-[3-({4-[(1S or 1R)-1-(cyclopentylamino)-2,2,2-trifluoroethyl]phenyl}amino)-4-oxo-4,5-dihydro-1H-pyrazolo[4,3-c]pyridin-1-yl]tetrahydro-2H-pyran-4-carbonitrile]
0.04 | – | 0.3 | CC(C)(C)OC(=O)CN1Cc2cc(Nc3nn([C@H]4COCC[C@@H]4C#N)c4cc[nH]c(=O)c34)ccc2S1(=O)=O [Example 1-64, tert-butyl [5-({1-[(3R,4S)-4-cyanotetrahydro-2H-pyran-3-yl]-4-oxo-4,5-dihydro-1H-pyrazolo[4,3-c]pyridin-3-yl}amino)-1,1-dioxido-1,2-benzisothiazol-2(3H)-yl]acetate]
0.65 | 1.73 | – | CC1(C)CC1NC(c1ccc(Nc2nn([C@H]3COCC[C@@H]3C#N)c3cc[nH]c(=O)c23)cc1)C(F)(F)F (single isomer, unassigned) [Example 1-48, (3R,4S)-3-{3-[(4S or 4R-{1S or 1R-[(2,2-dimethylcyclopropyl)amino]-2,2,2-trifluoroethyl}phenyl)amino]-4-oxo-4,5-dihydro-1H-pyrazolo[4,3-c]pyridin-1-yl}tetrahydro-2H-pyran-4-carbonitrile]
0.12 | 0.14 | – | N#C[C@H]1CCOC[C@@H]1n1nc(Nc2ccc(C(NC3CCCC3)C(F)(F)F)cc2)c2c(=O)[nH]ccc21 (single isomer, unassigned) [Example 1-85, (3R,4S)-3-[3-({4-[(1R or 1S)-1-(cyclopentylamino)-2,2,2-trifluoroethyl]phenyl}amino)-4-oxo-4,5-dihydro-1H-pyrazolo[4,3-c]pyridin-1-yl]tetrahydro-2H-pyran-4-carbonitrile]
0.08 | 0.11 | – | CC(C)NC(c1ccc(Nc2nn([C@H]3COCC[C@@H]3C#N)c3cc[nH]c(=O)c23)cc1)C(F)(F)F (single isomer, unassigned) [Example 1-52, (3R,4S)-3-{4-oxo-3-[(4-{(1R or 1S)-2,2,2-trifluoro-1-[(1-methylethyl)amino]ethyl}phenyl)amino]-4,5-dihydro-1H-pyrazolo[4,3-c]pyridin-1-yl}tetrahydro-2H-pyran-4-carbonitrile]
0.07 | – | 0.05 | CC(C)NC1(C)C(=O)Nc2cc(Nc3nn(C4COCC[C@@H]4C#N)c4cc[nH]c(=O)c34)ccc21 (single isomer, unassigned) [Example 1-101, (3R,4S)-3-[3-({(3S or 3R)-3-methyl-3-[(1-methylethyl)amino]-2-oxo-2,3-dihydro-1H-indol-6-yl}amino)-4-oxo-4,5-dihydro-1H-pyrazolo[4,3-c]pyridin-1-yl] tetrahydro-2H-pyran-4-carbonitrile]
0.09 | 0.11 | – | N#C[C@H]1CCOC[C@@H]1n1nc(Nc2ccc(C(NC3CCC3)C(F)(F)F)cc2)c2c(=O)[nH]ccc21 (single isomer, unassigned) [Example 1-93, (3R,4S)-3-[3-({4-[(1R or 1S)-1-(cyclobutylamino)-2,2,2-trifluoroethyl]phenyl}amino)-4-oxo-4,5-dihydro-1H-pyrazolo[4,3-c]pyridin-1-yl]tetrahydro-2H-pyran-4-carbonitrile]
0.27 | 0.43 | – | CC1(C)CC1NC(c1ccc(Nc2nn([C@H]3COCC[C@@H]3C#N)c3cc[nH]c(=O)c23)cc1)C(F)(F)F (single isomer, unassigned) [Example 1-47, (3R,4S)-3-{3-[(4S or 4R-{1S or 1R-[(2,2-dimethylcyclopropyl)amino]-2,2,2-trifluoroethyl}phenyl)amino]-4-oxo-4,5-dihydro-1H-pyrazolo[4,3-c]pyridin-1-yl}tetrahydro-2H-pyran-4-carbonitrile]
0.05 | – | 0.16 | CC1(C)C(=O)Nc2cc(Nc3nn([C@H]4COCC[C@@H]4C#N)c4cc[nH]c(=O)c34)ccc21 [Example 2-2, (3R,4S)-3-{3-[(3,3-dimethyl-2-oxo-2,3-dihydro-1H-indol-6-yl)amino]-4-oxo-4,5-dihydro-1H-pyrazolo [4,3-c]pyridin-1-yl}tetrahydro-2H-pyran-4-carbonitrile]

— patent US9957265B2, “N-(2-cyano heterocyclyl) pyrazolo pyridones as janus kinase inhibitors” (Merck Sharp & Dohme Corp., priority 2013, dated 2018)
